Assay results from US6342765B1, “Imidazole derivatives and their use as farnesyl protein transferase inhibitors” (AstraZeneca UK Limited, priority 1997, dated 2002).

Assays:
[1] = biological target: T1, Farnesyl protein transferase (FPT) (Homo sapiens, UniProt P49354+P49356); assay: In-vitro farnesyl protein transferase assay (farnesylation of Ki-ras with radiolabelled farnesyl pyrophosphate); assay type: biochemical; conditions: read-out: IC50 in the above test
T1 construct: partially purified from human placenta; from tissue; host or cells: human placenta
Procedure: The following stock solutions were used and the assays were conducted in 96 well plates: TRIS Buffer (500 mM TRIS, 50 mM MgCl2.6H2O, pH=8.0); Farnesyl pyrophosphate (6.4 mg/ml); Aprotinin (1.9 mg/ml); Ki-ras (0.5 mg/ml, stored at −80° C.); Acid ethanol (850 ml absolute ethanol+150 ml concentrated HCl).
Farnesyl protein transferase (FPT) was partially purified from human placenta by t ammonium sulphate fractionation followed by a single Q-Sepharose™ (Pharmacia, Inc) anion exchange chromatography essentially as described by Ray and Lopez-Belmonte (Ray K P and Lopez-Belmonte J (1992) Biochemical Society Transactions 20 494-497). The substrate for FPT was Kras (CVIM C-terminal sequence). The cDNA for oncogenic val12 variant of human c-Ki-ras-2 4B was obtained from the plasmid pSW11-1 (ATCC). This was then subcloned into the polylinker of a suitable expression vector e.g. pIC147. The Kras was obtained after expression in the E. coli strain, BL21. […]
Assays were performed in 96 well plates as follows: 10 μl of test compound solution was added to each well. […] Precipitated protein was then collected onto glass fibre filter mats (B) using a Tomtec™ cell harvester and tritiated label was measured in a Wallac™1204 Betaplate scintillation counter. […]

IC50 [1]	melting point	Compound
~1 nM		CSCC[C@H](NC(=O)c1ccc(COC(Cn2ccnc2)c2ccc(F)cc2)cc1-c1ccc(F)cc1)C(=O)O (stereo partly drawn) [Example 2, (2S)-2-{2-(4-fluorophenyl)-4-[2-(imidazol-1-yl)-1-(4-fluorophenyl)ethoxymethyl]benzoylamino]-4-methylsulfanylbutyric acid]
	50 to 53 °C	CSCC[C@H](NC(=O)c1ccc(COC(Cn2ccnc2)c2nccs2)cc1-c1ccc(F)cc1)C(=O)OC(C)(C)C (stereo partly drawn) [Example 16, Tert-butyl (2S)-2-{2-(4-fluorophenyl)-4-[1-(thiazol-2-yl)-2-(imidazol-1-yl)ethoxymethyl]benzoylamino}-4-methylsulfanylbutyrate]
